# Patent US20120029187A1, “HALOALKYLSULFONANILIDE DERIVATIVE” (Nissan Chemical Industries, Ltd., priority 2009, published 2012)
# Experiments:
# Type in all cases: in vivo
# ducksalad [1] = test: Test Example 2: herbicidal effects during the vegetation period under submerged conditions; conditions: treatment during the vegetation period under submerged conditions; dose 2.52 g/a
# Outline: (§1)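 Barnyardgrass, bulrush and ducksalad were co-sown in alluvial soil flooded to 4 cm and grown in a greenhouse at 25 to 30° C. At the 1- or 2-leaf stage, water-diluted emulsifiable concentrates went onto the water surface at set doses (g/a). Herbicidal effect was scored three weeks later on a graded scale.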
# barnyardgrass [2] = test: as above; conditions: treatment during the vegetation period under submerged conditions; dose 2.52 g/a
# Outline: as §1
# bulrush [3] = test: as above; conditions: treatment during the vegetation period under submerged conditions; dose 2.52 g/a
# Outline: as §1
# Italian ryegrass [4] = test: Test Example 4: herbicidal effect in foliage treatment; conditions: three weeks after application
# Outline: (§2)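 Doses are given in grams per are of applied compound, sprayed as water-diluted emulsifiable concentrate onto foliage of 14-day-old plants grown at 25 to 30° C. Herbicidal activity was assessed visually on a rating scale after three weeks.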
# common lambsquater [5] = test: as above; conditions: three weeks after application
# Outline: as §2
# giant foxtail [6] = test: as above; conditions: three weeks after application
# Outline: as §2
# posumbu knotweed [7] = test: as above; conditions: three weeks after application
# Outline: as §2
# redroot pigweed [8] = test: as above; conditions: three weeks after application
# Outline: as §2
# beadstraw [9] = test: as above; conditions: three weeks after application
# Outline: as §2
# common ragweed [10] = test: as above; conditions: three weeks after application
# Outline: as §2
# velvetleaf [11] = test: as above; conditions: three weeks after application
# Outline: as §2
# large crabgrass [12] = test: as above; conditions: three weeks after application
# Outline: as §2
# barnyardgrass [13] = test: as above; conditions: three weeks after application
# Outline: as §2
# water foxtail [14] = test: as above; conditions: three weeks after application
# Outline: as §2
# wild oat [15] = test: as above; conditions: three weeks after application
# Outline: as §2
# common chickweed [16] = test: as above; conditions: three weeks after application
# Outline: as §2
# transplanted rice = test: Test Example 1: preemergence treatment under submerged conditions, effect on crop; conditions: dose 2.52 g/a
# Outline: (§3)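 Alluvial soil was flooded to 4 cm, sown with barnyardgrass, bulrush and ducksalad, and planted with 2.5-leaf rice seedlings. On the seeding day, water-diluted emulsifiable concentrates were applied to the water surface at set doses (g/a). After three weeks in a 25 to 30° C. greenhouse, mortality was scored 0–5.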
# ducksalad [17] = test: Test Example 1: herbicidal effects in preemergence treatment under submerged conditions; conditions: dose 2.52 g/a
# Outline: as §3
# barnyardgrass [18] = test: as above; conditions: dose 2.52 g/a
# Outline: as §3
# bulrush [19] = test: as above; conditions: dose 2.52 g/a
# Outline: as §3
# Italian ryegrass [20] = test: Test Example 3: herbicidal effects in soil treatment
# Outline: (§4)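 Seeds were sown in sterilized diluvial soil and covered with about 1.5 cm of soil. Compounds, formulated as emulsifiable concentrates and diluted with water, were sprayed evenly over the soil surface at set doses in g/a. Herbicidal effect was scored on a rating scale three weeks later.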
# common lambsquater [21] = test: as above
# Outline: as §4
# giant foxtail [22] = test: as above
# Outline: as §4
# posumbu knotweed [23] = test: as above
# Outline: as §4
# redroot pigweed [24] = test: as above
# Outline: as §4
# beadstraw [25] = test: as above
# Outline: as §4
# common ragweed [26] = test: as above
# Outline: as §4
# velvetleaf [27] = test: as above
# Outline: as §4
# large crabgrass [28] = test: as above
# Outline: as §4
# barnyardgrass [29] = test: as above
# Outline: as §4
# water foxtail [30] = test: as above
# Outline: as §4
# wild oat [31] = test: as above
# Outline: as §4
# common chickweed [32] = test: as above
# Outline: as §4
structure (smiles),measurement,setting,value
CC(C)COC(=O)N(c1ccccc1CN1CC(C)OCC1=O)S(=O)(=O)C(F)(F)F (centres unmarked) [Compound I-9],"C: ducksalad, herbicidal effect (evaluation scale 0-5)",ducksalad [1],5 (mortality of 90% or above (nearly complete death))
same,"A: barnyardgrass, herbicidal effect (evaluation scale 0-5)",barnyardgrass [2],5 (mortality of 90% or above (nearly complete death))
same,"B: bulrush, herbicidal effect (evaluation scale 0-5)",bulrush [3],5 (mortality of 90% or above (nearly complete death))
same,"H: Italian ryegrass, herbicidal effect",Italian ryegrass [4]; dose 3.2 g/a,3 (mortality of at least 40% and less than 70%)
same,"L: common lambsquater, herbicidal effect",common lambsquater [5]; dose 3.2 g/a,0 (mortality of less than 5% (almost ineffective))
same,"E: giant foxtail, herbicidal effect",giant foxtail [6]; dose 3.2 g/a,3 (mortality of at least 40% and less than 70%)
same,"M: posumbu knotweed, herbicidal effect",posumbu knotweed [7]; dose 3.2 g/a,0 (mortality of less than 5% (almost ineffective))
same,"K: redroot pigweed, herbicidal effect",redroot pigweed [8]; dose 3.2 g/a,2 (mortality of at least 20% and less than 40%)
same,"O: beadstraw, herbicidal effect",beadstraw [9]; dose 3.2 g/a,4 (mortality of at least 70% and less than 90%)
same,"J: common ragweed, herbicidal effect",common ragweed [10]; dose 3.2 g/a,4 (mortality of at least 70% and less than 90%)
same,"I: velvetleaf, herbicidal effect",velvetleaf [11]; dose 3.2 g/a,5 (mortality of 90% or above (nearly complete death))
same,"D: large crabgrass, herbicidal effect",large crabgrass [12]; dose 3.2 g/a,5 (mortality of 90% or above (nearly complete death))
same,"A: barnyardgrass, herbicidal effect",barnyardgrass [13]; dose 3.2 g/a,5 (mortality of 90% or above (nearly complete death))
same,"G: water foxtail, herbicidal effect",water foxtail [14]; dose 3.2 g/a,5 (mortality of 90% or above (nearly complete death))
same,"F: wild oat, herbicidal effect",wild oat [15]; dose 3.2 g/a,0 (mortality of less than 5% (almost ineffective))
same,"N: common chickweed, herbicidal effect",common chickweed [16]; dose 3.2 g/a,3 (mortality of at least 40% and less than 70%)
same,"a: transplanted rice, effect on crop (evaluation scale 0-5)",transplanted rice,0 (mortality of less than 5% (almost ineffective))
same,"C: ducksalad, herbicidal effect (evaluation scale 0-5)",ducksalad [17],5 (mortality of 90% or above (nearly complete death))
same,"A: barnyardgrass, herbicidal effect (evaluation scale 0-5)",barnyardgrass [18],5 (mortality of 90% or above (nearly complete death))
same,"B: bulrush, herbicidal effect (evaluation scale 0-5)",bulrush [19],5 (mortality of 90% or above (nearly complete death))
same,"H: Italian ryegrass, herbicidal effect (evaluation scale 0-5)",Italian ryegrass [20]; dose 3.2 g/a,3 (mortality of at least 40% and less than 70%)
same,"L: common lambsquater, herbicidal effect (evaluation scale 0-5)",common lambsquater [21]; dose 3.2 g/a,0 (mortality of less than 5% (almost ineffective))
same,"E: giant foxtail, herbicidal effect (evaluation scale 0-5)",giant foxtail [22]; dose 3.2 g/a,4 (mortality of at least 70% and less than 90%)
same,"M: posumbu knotweed, herbicidal effect (evaluation scale 0-5)",posumbu knotweed [23]; dose 3.2 g/a,0 (mortality of less than 5% (almost ineffective))
same,"K: redroot pigweed, herbicidal effect (evaluation scale 0-5)",redroot pigweed [24]; dose 3.2 g/a,4 (mortality of at least 70% and less than 90%)
same,"O: beadstraw, herbicidal effect (evaluation scale 0-5)",beadstraw [25]; dose 3.2 g/a,4 (mortality of at least 70% and less than 90%)
same,"J: common ragweed, herbicidal effect (evaluation scale 0-5)",common ragweed [26]; dose 3.2 g/a,5 (mortality of 90% or above (nearly complete death))
same,"I: velvetleaf, herbicidal effect (evaluation scale 0-5)",velvetleaf [27]; dose 3.2 g/a,5 (mortality of 90% or above (nearly complete death))
same,"D: large crabgrass, herbicidal effect (evaluation scale 0-5)",large crabgrass [28]; dose 3.2 g/a,5 (mortality of 90% or above (nearly complete death))
same,"A: barnyardgrass, herbicidal effect (evaluation scale 0-5)",barnyardgrass [29]; dose 3.2 g/a,5 (mortality of 90% or above (nearly complete death))
same,"G: water foxtail, herbicidal effect (evaluation scale 0-5)",water foxtail [30]; dose 3.2 g/a,5 (mortality of 90% or above (nearly complete death))
same,"F: wild oat, herbicidal effect (evaluation scale 0-5)",wild oat [31]; dose 3.2 g/a,3 (mortality of at least 40% and less than 70%)
same,"N: common chickweed, herbicidal effect (evaluation scale 0-5)",common chickweed [32]; dose 3.2 g/a,5 (mortality of 90% or above (nearly complete death))
"CCOC(=O)N(c1ccccc1CN1CCSCC1=O)S(=O)(=O)C(F)(F)F [Compound I-18, 4-[2-(N-ethoxycarbonyl-N-trifluoromethanesulfonyl)aminobenzyl]-1,4-thiazinan-3-one]","C: ducksalad, herbicidal effect (evaluation scale 0-5)",ducksalad [1],4 (mortality of at least 70% and less than 90%)
same,"B: bulrush, herbicidal effect (evaluation scale 0-5)",bulrush [3],5 (mortality of 90% or above (nearly complete death))
same,"H: Italian ryegrass, herbicidal effect",Italian ryegrass [4]; dose 6.3 g/a,4 (mortality of at least 70% and less than 90%)
same,"L: common lambsquater, herbicidal effect",common lambsquater [5]; dose 6.3 g/a,4 (mortality of at least 70% and less than 90%)
same,"E: giant foxtail, herbicidal effect",giant foxtail [6]; dose 6.3 g/a,4 (mortality of at least 70% and less than 90%)
same,"M: posumbu knotweed, herbicidal effect",posumbu knotweed [7]; dose 6.3 g/a,3 (mortality of at least 40% and less than 70%)
same,"K: redroot pigweed, herbicidal effect",redroot pigweed [8]; dose 6.3 g/a,4 (mortality of at least 70% and less than 90%)
same,"O: beadstraw, herbicidal effect",beadstraw [9]; dose 6.3 g/a,4 (mortality of at least 70% and less than 90%)
same,"J: common ragweed, herbicidal effect",common ragweed [10]; dose 6.3 g/a,3 (mortality of at least 40% and less than 70%)
same,"I: velvetleaf, herbicidal effect",velvetleaf [11]; dose 6.3 g/a,4 (mortality of at least 70% and less than 90%)
same,"D: large crabgrass, herbicidal effect",large crabgrass [12]; dose 6.3 g/a,4 (mortality of at least 70% and less than 90%)
same,"A: barnyardgrass, herbicidal effect",barnyardgrass [13]; dose 6.3 g/a,5 (mortality of 90% or above (nearly complete death))
same,"G: water foxtail, herbicidal effect",water foxtail [14]; dose 6.3 g/a,5 (mortality of 90% or above (nearly complete death))
same,"F: wild oat, herbicidal effect",wild oat [15]; dose 6.3 g/a,3 (mortality of at least 40% and less than 70%)
same,"N: common chickweed, herbicidal effect",common chickweed [16]; dose 6.3 g/a,4 (mortality of at least 70% and less than 90%)
same,"a: transplanted rice, effect on crop (evaluation scale 0-5)",transplanted rice,0 (mortality of less than 5% (almost ineffective))
same,"C: ducksalad, herbicidal effect (evaluation scale 0-5)",ducksalad [17],5 (mortality of 90% or above (nearly complete death))
same,"A: barnyardgrass, herbicidal effect (evaluation scale 0-5)",barnyardgrass [18],5 (mortality of 90% or above (nearly complete death))
same,"B: bulrush, herbicidal effect (evaluation scale 0-5)",bulrush [19],5 (mortality of 90% or above (nearly complete death))
same,"H: Italian ryegrass, herbicidal effect (evaluation scale 0-5)",Italian ryegrass [20]; dose 6.3 g/a,4 (mortality of at least 70% and less than 90%)
same,"L: common lambsquater, herbicidal effect (evaluation scale 0-5)",common lambsquater [21]; dose 6.3 g/a,5 (mortality of 90% or above (nearly complete death))
same,"E: giant foxtail, herbicidal effect (evaluation scale 0-5)",giant foxtail [22]; dose 6.3 g/a,5 (mortality of 90% or above (nearly complete death))
same,"M: posumbu knotweed, herbicidal effect (evaluation scale 0-5)",posumbu knotweed [23]; dose 6.3 g/a,3 (mortality of at least 40% and less than 70%)
same,"K: redroot pigweed, herbicidal effect (evaluation scale 0-5)",redroot pigweed [24]; dose 6.3 g/a,4 (mortality of at least 70% and less than 90%)
same,"O: beadstraw, herbicidal effect (evaluation scale 0-5)",beadstraw [25]; dose 6.3 g/a,3 (mortality of at least 40% and less than 70%)
same,"J: common ragweed, herbicidal effect (evaluation scale 0-5)",common ragweed [26]; dose 6.3 g/a,4 (mortality of at least 70% and less than 90%)
same,"I: velvetleaf, herbicidal effect (evaluation scale 0-5)",velvetleaf [27]; dose 6.3 g/a,1 (mortality of at least 5% and less than 20%)
same,"D: large crabgrass, herbicidal effect (evaluation scale 0-5)",large crabgrass [28]; dose 6.3 g/a,4 (mortality of at least 70% and less than 90%)
same,"A: barnyardgrass, herbicidal effect (evaluation scale 0-5)",barnyardgrass [29]; dose 6.3 g/a,5 (mortality of 90% or above (nearly complete death))
same,"G: water foxtail, herbicidal effect (evaluation scale 0-5)",water foxtail [30]; dose 6.3 g/a,5 (mortality of 90% or above (nearly complete death))
same,"F: wild oat, herbicidal effect (evaluation scale 0-5)",wild oat [31]; dose 6.3 g/a,0 (mortality of less than 5% (almost ineffective))
same,"N: common chickweed, herbicidal effect (evaluation scale 0-5)",common chickweed [32]; dose 6.3 g/a,4 (mortality of at least 70% and less than 90%)
